Measured values taken from ChEMBL document CHEMBL3352227, “Synthesis, antimycobacterial and antibacterial evaluation of l-[(1R, 2S)-2-fluorocyclopropyl]fluoroquinolone derivatives containing an oxime functional moiety” (Eur J Med Chem, 2014).
≈ marks a conversion by molar mass, not a printed value.

Tests used:
Format in all cases: functional
[1] = system: Klebsiella pneumoniae; experiment: Antibacterial activity against extended-spectrum beta-lactamase producin Klebsiella pneumoniae 12-7 after 18 to 24 hrs by standard twofold serial dilution method
[2] = system: Staphylococcus aureus; experiment: Antibacterial activity against methicillin-resistant Staphylococcus aureus 12-2 after 18 to 24 hrs by standard twofold serial dilution method
[3] = system: Staphylococcus aureus; experiment: Antibacterial activity against methicillin-resistant Staphylococcus aureus 12-5 after 18 to 24 hrs by standard twofold serial dilution method
[4] = system: Pseudomonas aeruginosa; experiment: Antibacterial activity against Pseudomonas aeruginosa 12-12 after 18 to 24 hrs by standard twofold serial dilution method
[5] = system: Staphylococcus epidermidis; experiment: Antibacterial activity against methicillin-resistant Staphylococcus epidermidis 12-6 after 18 to 24 hrs by standard twofold serial dilution method
[6] = system: Staphylococcus epidermidis; experiment: Antibacterial activity against methicillin-sensitive Staphylococcus epidermidis 12-8 after 18 to 24 hrs by standard twofold serial dilution method
[7] = system: Mycobacterium tuberculosis; experiment: Antimycobacterial activity against Mycobacterium tuberculosis H37Rv ATCC 27294 by MABA method
[8] = system: Escherichia coli; experiment: Antibacterial activity against extended-spectrum beta-lactamase producing Escherichia coli 12-3 after 18 to 24 hrs by standard twofold serial dilution method
[9] = system: Escherichia coli; experiment: Antibacterial activity against extended-spectrum beta-lactamase producing Escherichia coli 12-14 after 18 to 24 hrs by standard twofold serial dilution method
[10] = system: Streptococcus pneumoniae; experiment: Antibacterial activity against Streptococcus pneumoniae ATCC 49619 after 18 to 24 hrs by standard twofold serial dilution method
[11] = system: Klebsiella pneumoniae; experiment: Antibacterial activity against extended-spectrum beta-lactamase producin Klebsiella pneumoniae 12-3 after 18 to 24 hrs by standard twofold serial dilution method
[12] = system: Klebsiella pneumoniae; experiment: Antibacterial activity against Klebsiella pneumoniae 12-1 after 18 to 24 hrs by standard twofold serial dilution method
[13] = system: Staphylococcus epidermidis; experiment: Antibacterial activity against methicillin-sensitive Staphylococcus epidermidis 12-6 after 18 to 24 hrs by standard twofold serial dilution method
[14] = system: Klebsiella pneumoniae; experiment: Antibacterial activity against extended-spectrum beta-lactamase producin Klebsiella pneumoniae 12-4 after 18 to 24 hrs by standard twofold serial dilution method
[15] = system: Staphylococcus epidermidis; experiment: Antibacterial activity against methicillin-resistant Staphylococcus epidermidis 12-1 after 18 to 24 hrs by standard twofold serial dilution method
[16] = system: Klebsiella pneumoniae; experiment: Antibacterial activity against Klebsiella pneumoniae 12-4 after 18 to 24 hrs by standard twofold serial dilution method
[17] = system: Staphylococcus epidermidis; experiment: Antibacterial activity against methicillin-sensitive Staphylococcus epidermidis 12-1 after 18 to 24 hrs by standard twofold serial dilution method
[18] = system: Staphylococcus aureus; experiment: Antibacterial activity against methicillin-resistant Staphylococcus aureus 12-4 after 18 to 24 hrs by standard twofold serial dilution method
[19] = system: Staphylococcus aureus; experiment: Antibacterial activity against methicillin-sensitive Staphylococcus aureus 12-4 after 18 to 24 hrs by standard twofold serial dilution method
[20] = system: Escherichia coli; experiment: Antibacterial activity against Escherichia coli ATCC 25922 after 18 to 24 hrs by standard twofold serial dilution method
[21] = system: Pseudomonas aeruginosa; experiment: Antibacterial activity against Pseudomonas aeruginosa 12-14 after 18 to 24 hrs by standard twofold serial dilution method
[22] = system: Staphylococcus aureus; experiment: Antibacterial activity against methicillin-sensitive Staphylococcus aureus 12-1 after 18 to 24 hrs by standard twofold serial dilution method
[23] = system: Escherichia coli; experiment: Antibacterial activity against Escherichia coli 12-1 after 18 to 24 hrs by standard twofold serial dilution method
[24] = system: Staphylococcus epidermidis; experiment: Antibacterial activity against methicillin-sensitive Staphylococcus epidermidis 12-3 after 18 to 24 hrs by standard twofold serial dilution method
[25] = system: Escherichia coli; experiment: Antibacterial activity against extended-spectrum beta-lactamase producing Escherichia coli 12-2 after 18 to 24 hrs by standard twofold serial dilution method
[26] = system: Streptococcus pneumoniae; experiment: Antibacterial activity against Streptococcus pneumoniae 12-18 after 18 to 24 hrs by standard twofold serial dilution method
[27] = system: Klebsiella pneumoniae; experiment: Antibacterial activity against Klebsiella pneumoniae 12-2 after 18 to 24 hrs by standard twofold serial dilution method
[28] = system: Klebsiella pneumoniae; experiment: Antibacterial activity against extended-spectrum beta-lactamase producin Klebsiella pneumoniae 12-14 after 18 to 24 hrs by standard twofold serial dilution method
[29] = system: Staphylococcus aureus; experiment: Antibacterial activity against Staphylococcus aureus ATCC 25923 after 18 to 24 hrs by standard twofold serial dilution method
[30] = system: Staphylococcus aureus; experiment: Antibacterial activity against methicillin-sensitive Staphylococcus aureus 12-5 after 18 to 24 hrs by standard twofold serial dilution method
[31] = system: Staphylococcus aureus; experiment: Antibacterial activity against methicillin-sensitive Staphylococcus aureus 12-2 after 18 to 24 hrs by standard twofold serial dilution method
[32] = system: Escherichia coli; experiment: Antibacterial activity against extended-spectrum beta-lactamase producing Escherichia coli 12-15 after 18 to 24 hrs by standard twofold serial dilution method

SMILES | MIC [1] [µg/mL] | MIC [2] [µg/mL] | MIC [3] [µg/mL] | MIC [4] [µg/mL] | MIC [5] [µg/mL] | MIC [6] [µg/mL] | MIC [7] [µg/mL] | MIC [8] [µg/mL] | MIC [9] [µg/mL] | MIC [10] [µg/mL] | MIC [11] [µg/mL] | MIC [12] [µg/mL] | MIC [13] [µg/mL] | MIC [14] [µg/mL] | MIC [15] [µg/mL] | MIC [16] [µg/mL] | MIC [17] [µg/mL] | MIC [18] [µg/mL] | MIC [19] [µg/mL] | MIC [20] [µg/mL] | also measured
CO/N=C1/CN(c2nc3c(cc2F)c(=O)c(C(=O)O)cn3[C@@H]2C[C@@H]2F)CC1CN (stereo partly drawn) | 2 (≈ 4.91 µM) | 16 (≈ 39.3 µM) | 16 (≈ 39.3 µM) | 0.5 (≈ 1.23 µM) | 4 (≈ 9.82 µM) | 1 (≈ 2.45 µM) | 0.5 (≈ 1.23 µM) | 32 (≈ 78.6 µM) | 64 (≈ 157 µM) | 0.125 (≈ 0.307 µM) | 32 (≈ 78.6 µM) | 0.25 (≈ 0.614 µM) | 0.125 (≈ 0.307 µM) | 0.5 (≈ 1.23 µM) | 4 (≈ 9.82 µM) | 0.25 (≈ 0.614 µM) | 0.125 (≈ 0.307 µM) | 32 (≈ 78.6 µM) | 0.06 (≈ 0.147 µM) | 0.06 (≈ 0.147 µM) | MIC [21]: 8 µg/mL (≈ 19.6 µM); MIC [22]: 0.125 µg/mL (≈ 0.307 µM); MIC [23]: 0.5 µg/mL (≈ 1.23 µM); MIC [24]: 0.5 µg/mL (≈ 1.23 µM); MIC [25]: 128 µg/mL (≈ 314 µM); MIC [26]: 0.25 µg/mL (≈ 0.614 µM); MIC [27]: 0.25 µg/mL (≈ 0.614 µM); MIC [28]: 64 µg/mL (≈ 157 µM); MIC [29]: 0.015 µg/mL (≈ 0.0368 µM); MIC [30]: 0.125 µg/mL (≈ 0.307 µM); MIC [31]: 0.125 µg/mL (≈ 0.307 µM); MIC [32]: > 128 µg/mL
NCC1CN(c2c(F)cc3c(=O)c(C(=O)O)cn([C@@H]4C[C@@H]4F)c3c2Cl)C/C1=N/OCc1ccccc1 (stereo partly drawn) | 16 (≈ 31 µM) | 0.5 (≈ 0.967 µM) | 0.5 (≈ 0.967 µM) | 8 (≈ 15.5 µM) | 64 (≈ 124 µM) | 64 (≈ 124 µM) | 16 (≈ 31 µM) | 32 (≈ 61.9 µM) | > 128 | 1 (≈ 1.93 µM) | > 128 | 2 (≈ 3.87 µM) | 0.5 (≈ 0.967 µM) | 32 (≈ 61.9 µM) | 0.5 (≈ 0.967 µM) | 2 (≈ 3.87 µM) | 0.5 (≈ 0.967 µM) | 0.5 (≈ 0.967 µM) | 0.25 (≈ 0.484 µM) | 0.5 (≈ 0.967 µM) | MIC [21]: 64 µg/mL (≈ 124 µM); MIC [22]: 0.5 µg/mL (≈ 0.967 µM); MIC [23]: 32 µg/mL (≈ 61.9 µM); MIC [24]: 1 µg/mL (≈ 1.93 µM); MIC [25]: > 128 µg/mL; MIC [26]: 8 µg/mL (≈ 15.5 µM); MIC [27]: 2 µg/mL (≈ 3.87 µM); MIC [28]: > 128 µg/mL; MIC [29]: 0.25 µg/mL (≈ 0.484 µM); MIC [30]: 0.5 µg/mL (≈ 0.967 µM); MIC [31]: 0.5 µg/mL (≈ 0.967 µM); MIC [32]: > 128 µg/mL
CCO/N=C1/CN(c2nc3c(cc2F)c(=O)c(C(=O)O)cn3[C@@H]2C[C@@H]2F)CC1CN (stereo partly drawn) | 0.125 (≈ 0.297 µM) | 4 (≈ 9.49 µM) | 4 (≈ 9.49 µM) | 0.125 (≈ 0.297 µM) | 4 (≈ 9.49 µM) | 0.25 (≈ 0.593 µM) | 0.5 (≈ 1.19 µM) | 16 (≈ 38 µM) | 16 (≈ 38 µM) | 0.03 (≈ 0.0712 µM) | 16 (≈ 38 µM) | 0.03 (≈ 0.0712 µM) | 0.015 (≈ 0.0356 µM) | 8 (≈ 19 µM) | 1 (≈ 2.37 µM) | 0.125 (≈ 0.297 µM) | < 0.008 | 4 (≈ 9.49 µM) | 0.015 (≈ 0.0356 µM) | < 0.008 | MIC [21]: 2 µg/mL (≈ 4.75 µM); MIC [22]: 0.015 µg/mL (≈ 0.0356 µM); MIC [23]: 0.06 µg/mL (≈ 0.142 µM); MIC [24]: 0.03 µg/mL (≈ 0.0712 µM); MIC [25]: 64 µg/mL (≈ 152 µM); MIC [26]: 0.06 µg/mL (≈ 0.142 µM); MIC [27]: 0.06 µg/mL (≈ 0.142 µM); MIC [28]: 32 µg/mL (≈ 75.9 µM); MIC [29]: < 0.008 µg/mL; MIC [30]: 0.015 µg/mL (≈ 0.0356 µM); MIC [31]: 0.015 µg/mL (≈ 0.0356 µM); MIC [32]: 128 µg/mL (≈ 304 µM)
NC[C@@H]1/C(=N\OCc2ccccc2)CN1c1cc2c(cc1F)c(=O)c(C(=O)O)cn2[C@@H]1C[C@@H]1F | 2 (≈ 4.27 µM) | > 128 | 128 (≈ 273 µM) | 2 (≈ 4.27 µM) | 8 (≈ 17.1 µM) | 2 (≈ 4.27 µM) | 8 (≈ 17.1 µM) | 16 (≈ 34.2 µM) | 128 (≈ 273 µM) | 0.5 (≈ 1.07 µM) | 128 (≈ 273 µM) | 0.5 (≈ 1.07 µM) | 1 (≈ 2.13 µM) | 16 (≈ 34.2 µM) | 32 (≈ 68.3 µM) | 0.5 (≈ 1.07 µM) | 1 (≈ 2.13 µM) | > 128 | 1 (≈ 2.13 µM) | 0.25 (≈ 0.534 µM) | MIC [21]: 32 µg/mL (≈ 68.3 µM); MIC [22]: 1 µg/mL (≈ 2.13 µM); MIC [23]: 8 µg/mL (≈ 17.1 µM); MIC [24]: 2 µg/mL (≈ 4.27 µM); MIC [25]: > 128 µg/mL; MIC [26]: 8 µg/mL (≈ 17.1 µM); MIC [27]: 0.5 µg/mL (≈ 1.07 µM); MIC [28]: 128 µg/mL (≈ 273 µM); MIC [29]: 0.25 µg/mL (≈ 0.534 µM); MIC [30]: 1 µg/mL (≈ 2.13 µM); MIC [31]: 1 µg/mL (≈ 2.13 µM); MIC [32]: > 128 µg/mL
